Data as given in patent US20150087004A1, “Microfabricated 3D Cell Culture System” (The Trustees of the University of Pennsylvania, priority 2012, published 2015).

Tested on: Human umbilical vein endothelial cells (HUVECs)
Test: Pro-angiogenic factor screening: directed invasion and sprouting from endothelialized parent vessel in 3D cell culture device
Type: cell-based
Conditions: for EC invasion into the matrix (single cell or collective cell invasion): factor added individually to source channel, over four days, 75 ng/mL (S1P 500 nM); for mode of cell migration / sprouting response: factor or cocktail in source channel, gradient across collagen matrix
Text: Examination the processes of angiogenic invasion and sprouting from an existing vessel in accordance with the disclosed subject matter will be described, with reference to FIG. 11A-D through FIG. 14A-F, for purpose of illustration and not limitation. Generally, a device in accordance with an embodiment of the disclosed subject matter can be prepared with an endothelium lining a cylindrical channel, surrounded by matrix, and exposed to a gradient of angiogenic factors emanating from a parallel source channel 150a. The device can be assembled by casting Type I collagen into a PDMS mold/gasket with two parallel needles held across the casting chamber. Upon collagen polymerization, the needles can be extracted to create hollow cylindrical channels in the collagen matrix 160. Endothelial cells (ECs) can be injected into one of the channels, allowing them to attach on the interior wall and form a confluent endothelium or “parent vessel” 150a. Flow can be maintained through both channels and media containing angiogenic factors can subsequently be added to the second channel to establish a gradient across the collagen matrix to the endothelium, as illustrated in FIG. 11B.
In a first example, the impact of various pro-angiogenic factors on directed invasion and sprouting from the parent vessel is examined. Six common factors associated with angiogenesis in the literature were selected: basic fibroblast growth factor (bFGF), hepatocyte growth factor (HGF), vascular endothelial growth factor (VEGF), monocyte chemotactic protein-1 (MCP-1), sphingosine-1-phosphate (S1P), and phorbol 12-myristate 13-acetate (PMA). After these factors were added individually to the non-endothelialized source channel, phase-contrast and confocal microscopy were used to assess the organization and development of EC invasion over four days.
In connection with the examples described herein, an exemplary device in accordance with the disclosed subject matter was fabricated from two patterned layers of poly(dimethylsiloxane) (PDMS; Sylgard 184; Dow-Corning) bonded to each other and sealed against a glass substrate (e.g., as depicted in FIG. 11A). The two PDMS layers were cast or double-cast from templates originally generated using standard photolithography of SU-8 on silicon wafers. To assemble the device, the bottom layer was first sealed to a glass coverslip. The top and bottom layers were then treated with oxygen plasma, bonded together, and cured at 110° C. overnight. Assembled devices then were treated with oxygen plasma, immersed in 0.1 mg/ml poly-L-lysine (Sigma) for 1 hr, 1% glutaraldehyde (Sigma) for 1.5 hr, washed several times with ddH2O, sterilized with UV light for 15 min, and soaked in 70% ethanol for 1 hr. To mold cylindrical channels, two 400 μm diameter acupuncture needles (Hwato) were inserted into parallel grooves at the top of the bottom layer and through the middle rectangular chamber approximately 200 μm above the glass coverslip surface. Rat tail collagen type I (2.5 mg/ml; BD Biosciences) was pipetted into the middle chamber and allowed to polymerize at 37° C. for 30 min. Excess collagen was subsequently aspirated from the fluid reservoirs feeding from the middle chamber. Devices were then covered with EGM-2 (Lonza) before the needles were extracted as described herein.
Cells were cultured and seeded in accordance with the disclosed subject matter into the device described in connection with the first example. Human umbilical vein endothelial cells (HUVECs) (Lonza) and human microvascular endothelial cells (HMVECs) (Lonza) were cultured in EGM-2 and EGM-2MV, respectively.

Compound | EC invasion into the matrix (single cell or collective cell invasion) | mode of cell migration / sprouting response
CCCCCCCCCCCCCC(=O)O[C@@H]1[C@@H](C)[C@@]2(O)[C@@H](C=C(CO)C[C@]3(O)C(=O)C(C)=C[C@@H]23)[C@@H]2C(C)(C)[C@]12OC(C)=O [PMA, phorbol 12-myristate 13-acetate] | substantial directed invasion | collective cell migration that manifested itself in the form of sparse, long, multi-cellular sprouts
CCCCCCCCCCCCC/C=C/[C@@H](O)[C@@H](N)COP(=O)(O)O [S1P, sphingosine-1-phosphate] | substantial directed invasion | chemotactic migration primarily of single cells
basic fibroblast growth factor [bFGF] | did not induce significant invasion | –
hepatocyte growth factor [HGF] | did not induce significant invasion | –
monocyte chemotactic protein-1 [MCP-1] | did not induce significant invasion | –
vascular endothelial growth factor [VEGF] | did not induce significant invasion | –
